Measurements as given in patent publication US20210395262A1, “INHIBITORS OF HUMAN IMMUNODEFICIENCY VIRUS REPLICATION” (ViiV HEALTHCARE UK (NO.5) LIMITED, priority 2018, published 2021).

Assays:
recombinant NL4-3 virus = test: HIV cell culture assay (antiviral activity, luciferase readout in MT-2 cells); type: cell-based; conditions: Human immunodeficiency virus 1, NL43, MT2
Experimental: HIV cell culture assay—MT-2 cells, 293T cells and the proviral DNA clone of NL4-3 virus were obtained from the […] AIDS Research and Reference Reagent Program. MT-2 cells were propagated in RPMI 1640 media supplemented with 10% heat inactivated fetal bovine serum (FBS), […] penicillin G and up to 100 units/mL streptomycin. The 293T cells were propagated in DMEM media supplemented with 10% heat inactivated FBS, […] penicillin G and […] streptomycin. A recombinant NL4-3 proviral clone, in which a section of the nef gene was replaced with the Renilla luciferase gene, was used to make the reference virus used in these studies. The recombinant virus was prepared through transfection of the recombinant NL4-3 proviral clone into 293T cells using Transit-293 Transfection Reagent from Mirus Bio LLC (Madison, Wis.). Supernatent was harvested after 2-3 days and the amount of virus present was titered in MT-2 cells using luciferase enzyme activity as a marker by measuring luciferase enzyme activity. Luciferase was quantitated using the EnduRen Live Cell Substrate from Promega (Madison, Wis.). Antiviral activities of compounds toward the recombinant virus were quantified by measuring luciferase activity in MT-2 cells infected for 4-5 days with the recombinant virus in the presence of serial dilutions of the compound.
The 50% effective concentration (EC50) was calculated by using the exponential form of the median effect equation where (Fa)=1/[1+(ED50/drug conc.)m] (Johnson V A, Byington R T. Infectivity Assay. In Techniques in HIV Research. ed. Aldovini A, Walker B D. 71-76. New York: Stockton Press. 1990). The 50% inhibitory concentration (EC50) was calculated by using the exponential form of the median effect equation where percent inhibition=1/[1+(EC50/drug concentration)m], where m is a parameter that reflects the slope of the concentration-response curve.

[1] = Compound cytotoxicity, XTT-based colorimetric assay; type: cell-based; conditions: human; uninfected MT2 cells, day 4, XTT; read-out: CC50
Experimental: Compound cytotoxicity and the corresponding CC50 values were determined using the same protocol as described in the antiviral assay except that uninfected cells were used. Cytotoxicity was assessed on day 4 in uninfected MT2 cells by using a XTT (2,3-bis[2-Methoxy-4-nitro-5-sulfophenyl]-2H-tetrazolium-5-carboxyanilide inner salt)-based colorimetric assay (Sigma-Aldrich, St Louis, Mo.).

Compound	EC50 (recombinant NL4-3 virus)	CC50 at 4 days [1]
C[C@@H]1CN(c2ccc3c(=O)n(-c4ccc(Cl)c5c(NS(C)(=O)=O)nn(CC(F)F)c45)c([C@H](Cc4cc(F)cc(F)c4)NC(=O)Cn4ccc(C5CCC5)n4)nc3c2)C[C@H](C)O1 (atropisomer, axis not shown; (P)) [Example 50, N—((S)-1-((3P)-3-(4-chloro-1-(2,2-difluoroethyl)-3-(methylsulfonamido)-1H-indazol-7-yl)-7-((2S,6R)-2,6-dimethylmorpholino)-4-oxo-3,4-dihydroquinazolin-2-yl)-2-(3,5-difluorophenyl)ethyl)-2-(3-cyclobutyl-1H-pyrazol-1-yl)acetamide]	0.91 nM	> 500 nM
O=C(Cn1nc(C(F)F)cc1C(F)F)N[C@@H](Cc1cc(F)cc(F)c1)c1nc2cc(N3CCCCC3)ccc2c(=O)n1-c1ccc(Cl)c2c(NS(=O)(=O)C3CC3)nn(CC(F)F)c12 (atropisomer, axis not shown; (P)) [Example 37, (S)-2-(3,5-bis(difluoromethyl)-1H-pyrazol-1-yl)-N-(1-((3P)-3-(4-chloro-3-(cyclopropanesulfonamido)-1-(2,2-difluoroethyl)-1H-indazol-7-yl)-4-oxo-7-(piperidin-1-yl)-3,4-dihydroquinazolin-2-yl)-2-(3,5-difluorophenyl)ethyl)acetamide]	2.34 nM	> 1000 nM
Cn1nc(NS(C)(=O)=O)c2c(Cl)ccc(-n3c([C@H](Cc4cc(F)cc(F)c4)NC(=O)Cn4nc(C(F)F)c5c4C(F)(F)[C@@H]4C[C@H]54)nc4cc(N5CCC5)ccc4c3=O)c21 (atropisomer, axis not shown; (P)) [Example 18, N—((S)-1-(7-(azetidin-1-yl)-(3P)-3-(4-chloro-1-methyl-3-(methylsulfonamido)-1H-indazol-7-yl)-4-oxo-3,4-dihydroquinazolin-2-yl)-2-(3,5-difluorophenyl)ethyl)-2-((3bS,4aR)-3-(difluoromethyl)-5,5-difluoro-3b,4,4a,5-tetrahydro-1H-cyclopropa[3,4]cyclopenta[1,2-c]pyrazol-1-yl)acetamide]	0.066 nM	> 1000 nM
Cn1nc(NS(C)(=O)=O)c2c(Cl)ccc(-n3c([C@H](Cc4cc(F)cc(F)c4)NC(=O)Cn4nc(C(F)F)c5c4C(F)(F)[C@@H]4C[C@H]54)nc4cc(N5CCC(C)(C)CC5)ccc4c3=O)c21 (atropisomer, axis not shown; (P)) [Example 1, N—((S)-1-((3P)-3-(4-chloro-1-methyl-3-(methylsulfonamido)-1H-indazol-7-yl)-7-(4,4-dimethylpiperidin-1-yl)-4-oxo-3,4-dihydroquinazolin-2-yl)-2-(3,5-difluorophenyl)ethyl)-2-((3bS,4aR)-3-(difluoromethyl)-5,5-difluoro-3b,4,4a,5-tetrahydro-1H-cyclopropa[3,4]cyclopenta[1,2-c]pyrazol-1-yl)acetamide]	0.796 nM	> 500 nM
CS(=O)(=O)Nc1nn(CC(F)F)c2c(-n3c([C@H](Cc4cc(F)cc(F)c4)NC(=O)Cn4nc(C(F)F)c5c4C(F)(F)[C@@H]4C[C@H]54)nc4cc(N5CCOCC5)ccc4c3=O)ccc(Cl)c12 (atropisomer, axis not shown; (P)) [Example 7, N—((S)-1-((3P)-3-(4-chloro-1-(2,2-difluoroethyl)-3-(methylsulfonamido)-1H-indazol-7-yl)-7-morpholino-4-oxo-3,4-dihydroquinazolin-2-yl)-2-(3,5-difluorophenyl)ethyl)-2-((3bS,4aR)-3-(difluoromethyl)-5,5-difluoro-3b,4,4a,5-tetrahydro-1H-cyclopropa[3,4]cyclopenta[1,2-c]pyrazol-1-yl)acetamide]	0.085 nM	> 500 nM
Cn1nc(NS(C)(=O)=O)c2c(Cl)ccc(-n3c([C@H](Cc4cc(F)cc(F)c4)NC(=O)Cn4nc(C(F)F)c5c4C(F)(F)[C@@H]4C[C@H]54)nc4cc(N5CC6CCC(C5)O6)ccc4c3=O)c21 [Example 27, N—((S)-1-(7-((1R,5S)-8-oxa-3-azabicyclo[3.2.1]octan-3-yl)-(3P)-3-(4-chloro-1-methyl-3-(methylsulfonamido)-1H-indazol-7-yl)-4-oxo-3,4-dihydroquinazolin-2-yl)-2-(3,5-difluorophenyl)ethyl)-2-((3bS,4aR)-3-(difluoromethyl)-5,5-difluoro-3b,4,4a,5-tetrahydro-1H-cyclopropa[3,4]cyclopenta[1,2-c]pyrazol-1-yl)acetamide]	0.051 nM	> 500 nM
C[C@@H]1CN(c2ccc3c(=O)n(-c4ccc(Cl)c5c(NS(C)(=O)=O)nn(CC(F)F)c45)c([C@H](Cc4cc(F)cc(F)c4)NC(=O)Cn4nc(C(F)F)cc4C4CC4)nc3c2)C[C@H](C)O1 [Example 46, N—((S)-1-((3P)-3-(4-chloro-1-(2,2-difluoroethyl)-3-(methylsulfonamido)-1H-indazol-7-yl)-7-((2S,6R)-2,6-dimethylmorpholino)-4-oxo-3,4-dihydroquinazolin-2-yl)-2-(3,5-difluorophenyl)ethyl)-2-(5-cyclopropyl-3-(difluoromethyl)-1H-pyrazol-1-yl)acetamide]	0.58 nM	> 500 nM
C[C@@H]1CN(c2ccc3c(=O)n(-c4ccc(Cl)c5c(NS(C)(=O)=O)nn(CC(F)F)c45)c([C@H](Cc4cc(F)cc(F)c4)NC(=O)Cn4nc(C(F)(F)F)c5c4C(F)(F)[C@@H]4C[C@H]54)nc3c2)C[C@H](C)O1 (atropisomer, axis not shown; (P)) [Example 45, N—((S)-1-((3P)-3-(4-chloro-1-(2,2-difluoroethyl)-3-(methylsulfonamido)-1H-indazol-7-yl)-7-((2S,6R)-2,6-dimethylmorpholino)-4-oxo-3,4-dihydroquinazolin-2-yl)-2-(3,5-difluorophenyl)ethyl)-2-((3bS,4aR)-5,5-difluoro-3-(trifluoromethyl)-3b,4,4a,5-tetrahydro-1H-cyclopropa[3,4]cyclopenta[1,2-c]pyrazol-1-yl)acetamide]	0.1 nM	> 500 nM
Cn1nc(NS(C)(=O)=O)c2c(Cl)ccc(-n3c([C@H](Cc4cc(F)cc(F)c4)NC(=O)Cn4nc(C(F)F)c5c4C(F)(F)[C@@H]4C[C@H]54)nc4cc(N5CCCOCC5)ccc4c3=O)c21 (atropisomer, axis not shown; (P)) [Example 17, N—((S)-1-((3P)-3-(4-chloro-1-methyl-3-(methylsulfonamido)-1H-indazol-7-yl)-7-(1,4-oxazepan-4-yl)-4-oxo-3,4-dihydroquinazolin-2-yl)-2-(3,5-difluorophenyl)ethyl)-2-((3bS,4aR)-3-(difluoromethyl)-5,5-difluoro-3b,4,4a,5-tetrahydro-1H-cyclopropa[3,4]cyclopenta[1,2-c]pyrazol-1-yl)acetamide]	0.069 nM	> 1000 nM
C[C@@H]1CN(c2ccc3c(=O)n(-c4ccc(Cl)c5c(NS(C)(=O)=O)nn(CC(F)F)c45)c([C@H](Cc4cc(F)cc(F)c4)NC(=O)Cn4nc(C5CC5)c5ccccc54)nc3c2)C[C@H](C)O1 (atropisomer, axis not shown; (P)) [Example 44, N—((S)-1-((3P)-3-(4-chloro-1-(2,2-difluoroethyl)-3-(methylsulfonamido)-1H-indazol-7-yl)-7-((2S,6R)-2,6-dimethylmorpholino)-4-oxo-3,4-dihydroquinazolin-2-yl)-2-(3,5-difluorophenyl)ethyl)-2-(3-cyclopropyl-1H-indazol-1-yl)acetamide]	0.59 nM	> 500 nM
